Common to all, as to experiment: MIC determination, broth microdilution
(In general: Dilution methods test growth across graded concentrations, often in twofold steps.)

One assay relates to E. coli DH5α. The assay is classed as cell-based, Escherichia coli. Conditions: listed as measured MICs for polymyxin-supplemented assays.
In the next assay the test system is K. pneumoniae. The assay is classed as cell-based, Klebsiella pneumoniae. Conditions: listed as measured MICs for polymyxin-supplemented assays.
For a further assay, the system named is P. aeruginosa. The assay is classed as cell-based, Pseudomonas aeruginosa. Conditions: listed as measured MICs for polymyxin-supplemented assays.
The test system of another assay is A. baumannii. It counts as cell-based, Acinetobacter baumannii. Conditions: listed as measured MICs for polymyxin-supplemented assays.
For the next assay, the system named is E. cloacae ATCC 13047. It counts as cell-based, Enterobacter cloacae.

A value given as a limit tells only on which side of the number the result lay.

For the substance polymyxin, the MIC of polymyxin was 0.0625 µg/mL in the assay on E. coli DH5α; 0.15 µg/mL in the assay with K. pneumoniae; 0.15 µg/mL with P. aeruginosa; 0.3 µg/mL in the assay with A. baumannii; more than 64 µg/mL in the assay with E. cloacae ATCC 13047 (E. cloacae ATCC 13047, strain not susceptible (note)); 2 µg/mL in the assay on E. cloacae ATCC 13047 (E. cloacae, value in the list of measured MICs).
